Data: paper PMC9501633, “Synthesis, Characterisation and Mechanism of Action of Anticancer 3-Fluoroazetidin-2-ones” (Pharmaceuticals, 2022)

How the values were obtained:
MCF-7 cells [1] = experiment: Immunofluorescence confocal microscopy of the microtubule network; format: cell-based, human; details: MCF-7, 16 h; 33 0.1, 0.5 and 1.0 μM; paclitaxel 1.0 μM; CA-4 0.01 μM
Protocol: The tubulin-targeting effect of compound 33 on the microtubule network of MCF-7 cells was further evaluated by immunofluorescence studies to identify the cellular effects that are relevant to its mechanism of action by inhibiting the polymerisation of tubulin. […] Treatment of MCF-7 cells with compound 33 (0.1, 0.5 and 1.0 μM) induced cell rounding and distinct abnormalities of the spindle formation as well as a loss of the structured tubulin that impacts the microtubule network structure in a dose-dependent manner.
Confocal microscopy was used to determine the effects of novel compound 33 and standard drugs on the MCF-7 cytoskeleton according to the protocols we previously described. For the immunofluorescence study, MCF-7 cells were seeded at 1 × 10^5 cells/mL using eight chamber glass slides (BD Biosciences). The cells were treated with vehicle control (1% ethanol (v/v)), CA-4 (0.01 μM), paclitaxel (1 µM) and 33 (0.1 µM, 0.5 µM and 1 µM) for 16 h. The cells were gently washed in PBS, fixed with 4% paraformaldehyde in PBS (20 min) and permeabilised in 0.5% Triton X-100. After further washes in PBS (containing 0.1% Tween (PBST)), cells were blocked with 5% bovine serum albumin which was diluted with PBST. Cells were incubated with mouse monoclonal anti-α-tubulin–FITC antibody (clone DM1A) (Sigma) (1:100) at 20 °C for 2 h and then washed in PBST and incubated with Alexa Fluor 488 dye (1:500) for 1 h at 20 °C. Cells were washed in PBST and mounted in Ultra Cruz Mounting Media (Santa Cruz Biotechnology, Santa Cruz, CA, USA) containing 4,6-diamino-2-phenolindol dihydrochloride (DAPI). The images were captured by Leica SP8 confocal microscopy with Leica Application Suite X software. Experiments were performed on three independent occasions and images were collected on the same day using identical parameters.
Figure 8 Compound 33 acts as depolymeriser of the microtubule network of MCF-7 breast cancer cells. Cells were treated with vehicle control ([…]), CA-4 (0.01 μM), paclitaxel (1 μM) or compound 33 (0.1, 0.5 and 1 μM) for 16 h. […]

MCF-7 cells [2] = experiment: Annexin V-FITC/PI apoptosis assay (flow cytometry); format: cell-based, human; details: 48 h
Protocol: Among the cell death pathways, apoptosis is very important to maintain cellular homeostasis. However, upon severe and irreparable cellular stress, all cells, including cancer cells, undergo apoptosis. In this work, the Annexin V–FITC/PI double-staining method was used in assessing the development of apoptosis when MCF-7 cells are exposed to compound 33 (0.1 and 0.5 μM for 48 h). MCF-7 cells were first treated with compound 33 for 48 h followed by staining with Annexin V–fluorescein isothiocyanate (FITC)/propidium iodide (PI). Live cells (Annexin V^−/PI^−), early apoptotic cells (Annexin V^+/PI^−), late apoptotic cells (Annexin V+/PI+) and necrotic cells (Annexin V^−/PI^+) can be differentiated by tie technique following flow cytometric analysis (Figure 5). The positive control CA-4 (at 50 nM concentration) induced 34.6% Annexin V-positive apoptotic cells, and the vehicle control used was 0.1% ethanol (v/v).
Apoptotic cell death was monitored by flow cytometry using Annexin V and propidium iodide (PI) as previously described by us. MCF-7 cells were seeded in 6-well plates at a density of 1 × 10^5 cells/mL and treated with either vehicle (0.1% (v/v) EtOH) or β-lactam compound 33 at concentrations 0.1 and 0.5 µM for 48 h. Cells were harvested and prepared for flow cytometric analysis. Cells were washed in 1X binding buffer (20X binding buffer: 0.1 M HEPES, pH 7.4; 1.4 M NaCl; 25 mM CaCl2 diluted in dH2O) and incubated in the dark for 30 min on ice in Annexin V-containing binding buffer [1:100]. Cells were then washed in binding buffer and then re-suspended in PI-containing binding buffer (1:1000). Samples were then analysed with the BD Accuri flow cytometer and Prism software. The resulting cell populations were identified as Annexin V- and PI-negative (Q4, healthy cells), Annexin V-positive and PI-negative (Q3, early apoptosis), Annexin V- and PI-positive (Q2, late apoptosis) and Annexin V-negative and PI-positive (Q1, necrosis). The positive control for induction of cell death was […].
Figure 5 Compound 33 induces apoptosis in MCF-7 breast cancer cells. […] .

SW-480 cells = experiment: AlamarBlue cell viability assay; format: cell-based
Protocol: Compound # (Treatment Concentration µM) […]
different para-substituent ring B 26-29; 3-fluoro β-lactam compounds containing different meta-substituent ring B 30, 33-35; (B) 3,3-difluoro β-lactam compounds containing different para-substituent ring B 36-39; 3,3-difluoro β-lactam compounds containing different meta-substituent […]
ring B 40, 42-45 in SW-480 cancer cells.
Cell proliferation of MCF-7 cells was determined with an alamarBlue assay (seeding density […]
Compound concentrations of either 10 μM or 1 μM for 72 h were used to treat the cells with control wells containing vehicle ethanol (1%

U251 = experiment: NCI 60 cell line screen, CNS; format: cell-based, human; details: for inhibition at 10 µM: U-251, one dose 10 µM; for Growth %: one dose 10 µM
UO-31 = experiment: NCI 60 cell line screen, Renal; format: cell-based, human; details: for inhibition at 10 µM / Growth %: one dose 10 µM
NCI-H322M = experiment: NCI 60 cell line screen, NSCLung; format: cell-based, human; details: for inhibition at 10 µM / Growth %: one dose 10 µM
PC-3 = experiment: NCI 60 cell line screen, Prostate; format: cell-based, human; details: for inhibition at 10 µM / Growth %: one dose 10 µM
NCI-H226 = experiment: NCI 60 cell line screen, NSCLung; format: cell-based, human; details: for inhibition at 10 µM / Growth %: one dose 10 µM

Row | SMILES | effect on the microtubule network (MCF-7 cells [1]) | inhibition at 10 µM (U251; Homo sapiens) [%] | Growth % (U251) [%] | inhibition at 10 µM (UO-31; Homo sapiens) [%] | Growth % (UO-31) [%] | inhibition at 10 µM (NCI-H322M; Homo sapiens) [%] | Growth % (NCI-H322M) [%] | inhibition at 10 µM (PC-3; Homo sapiens) [%] | Growth % (PC-3) [%] | inhibition at 10 µM (NCI-H226; Homo sapiens) [%] | Growth % (NCI-H226) [%] | further results
1 | COc1ccc(/C=C\c2cc(OC)c(OC)c(OC)c2)cc1O [CA-4, combretastatin A-4, reference compound] | depolymerisation and destabilisation | – | – | – | – | – | – | – | – | – | – | viability at 0.05 µM (MCF-7 cells [2]; Homo sapiens, MCF7, MCF-7, 50 nM, read-out: Viable cells): 61.8%; Annexin V-positive apoptotic cells (MCF-7 cells [2]; MCF-7, 50 nM): 34.6%; IC50 (SW-480 cells; Homo sapiens, SW480 cells): 0.0063 ± 0.0006 µM
2 | COc1ccc(C2C(F)C(=O)N2c2cc(OC)c(OC)c(OC)c2)cc1F (stereo not drawn) [Compound 33, 3-Fluoro-4-(3-fluoro-4-methoxyphenyl)-1-(3,4,5-trimethoxyphenyl)azetidin-2-one] | destabilising microtubules | 88.1 | 11.86 | 56.8 | 43.2 | 53.5 | 46.45 | 76.9 | 23.13 | 41 | 58.99 | TGI (U251; 5-dose, 48 h): >100 µM; GI50 (U251; Homo sapiens, U-251, 5-dose, 48 h): 0.0236 µM; TGI (UO-31; 5-dose, 48 h): >100 µM; GI50 (UO-31; Homo sapiens, 5-dose, 48 h): 0.171 µM; TGI (NCI-H322M; 5-dose, 48 h): >100 µM; GI50 (NCI-H322M; Homo sapiens, 5-dose, 48 h): 1.63 µM; TGI (PC-3; 5-dose, 48 h): >100 µM; GI50 (PC-3; Homo sapiens, 5-dose, 48 h): 0.042 µM; viability at 0.1 µM (MCF-7 cells [2]; Homo sapiens, MCF7, MCF-7, 0.1 μM, read-out: Viable cells): 84.9%; viability at 0.5 µM (MCF-7 cells [2]; Homo sapiens, MCF7, MCF-7, 0.5 μM, read-out: Viable cells): 48.8%; apoptosis (early + late) (MCF-7 cells [2]; MCF-7, 0.1 μM): 14.2%; early apoptotic cells (MCF-7 cells [2]; MCF-7, 0.1 μM): 8.1%; late apoptotic cells (MCF-7 cells [2]; MCF-7, 0.1 μM): 6.1%; apoptosis (early + late) (MCF-7 cells [2]; MCF-7, 0.5 μM): 45.9%; early apoptotic cells (MCF-7 cells [2]; MCF-7, 0.5 μM): 22.1%; late apoptotic cells (MCF-7 cells [2]; MCF-7, 0.5 μM): 23.8%; cells remaining (SW-480 cells; SW-480, 10 μM, 72 h): 62%; TGI (NCI-H226; 5-dose, 48 h): >100 µM; GI50 (NCI-H226; Homo sapiens, 5-dose, 48 h): 22.2 µM
3 | CCOc1ccc(C2N(c3cc(OC)c(OC)c(OC)c3)C(=O)C2(F)F)cc1 (stereo not drawn) [Compound 37, 4-(4-Ethoxyphenyl)-3,3-difluoro-1-(3,4,5-trimethoxyphenyl)azetidin-2-one] | – | 63.8 | 36.19 | 48.1 | 51.9 | 32.8 | 67.23 | 62.7 | 37.3 | 29 | 71.01 | –
4 | COc1ccc(C2N(c3cc(OC)c(OC)c(OC)c3)C(=O)C2(F)F)cc1F (stereo not drawn) [Compound 43, 3,3-Difluoro-4-(3-fluoro-4-methoxyphenyl)-1-(3,4,5-trimethoxyphenyl)azetidin-2-one] | – | 58.4 | 41.61 | 46.5 | 53.48 | 8.79 | 91.21 | 64.1 | 35.89 | 24.5 | 75.53 | –
